Experimental data: US20240189375A1, “COMPOSITION COMPRISING A […] AN EXTRACT THEREOF FOR USE IN THE TREATMENT OF A VIRAL DISEASE” (priority 2021, published 2024)

Biological target: T1, rACE2 (Homo sapiens, UniProt Q9BYF1)
T1 construct: purchased R&D systems, Zug
Assay: ACE2 enzymatic activity assay with fluorogenic substrate
Format: biochemical
Conditions: range of 0.045 nM to 11100 nM; positive control; read-out: half maximal inhibitory concentration (IC50) of ACE2 catalytic activity
Protocol: The ACE2 enzymatic activity assay was designed to measure the exopeptidase activity of ACE2 and to screen for inhibition. Activity was measured using a commercially available synthetic fluorogenic substrate for ACE2 and rACE2 (R&D systems, Zug). rACE2 was used to generate a standard curve using the assay buffer, 75 mM TRIS, 1M NaCl, ph7.5. Natural extract screening was performed using 100 ng/ml rACE2 and 15 μM ACE2 fluorogenic substrate plus the Chlorella extracts in various concentrations. Subsequently the mixture was incubated for 1 h at 37° C. and measured using Flexstation 3 (Molecular Devices, San Jose, CA, USA) at excitation 320 nm and emission 405 nm.

T1 sequence (Q9BYF1 18-805): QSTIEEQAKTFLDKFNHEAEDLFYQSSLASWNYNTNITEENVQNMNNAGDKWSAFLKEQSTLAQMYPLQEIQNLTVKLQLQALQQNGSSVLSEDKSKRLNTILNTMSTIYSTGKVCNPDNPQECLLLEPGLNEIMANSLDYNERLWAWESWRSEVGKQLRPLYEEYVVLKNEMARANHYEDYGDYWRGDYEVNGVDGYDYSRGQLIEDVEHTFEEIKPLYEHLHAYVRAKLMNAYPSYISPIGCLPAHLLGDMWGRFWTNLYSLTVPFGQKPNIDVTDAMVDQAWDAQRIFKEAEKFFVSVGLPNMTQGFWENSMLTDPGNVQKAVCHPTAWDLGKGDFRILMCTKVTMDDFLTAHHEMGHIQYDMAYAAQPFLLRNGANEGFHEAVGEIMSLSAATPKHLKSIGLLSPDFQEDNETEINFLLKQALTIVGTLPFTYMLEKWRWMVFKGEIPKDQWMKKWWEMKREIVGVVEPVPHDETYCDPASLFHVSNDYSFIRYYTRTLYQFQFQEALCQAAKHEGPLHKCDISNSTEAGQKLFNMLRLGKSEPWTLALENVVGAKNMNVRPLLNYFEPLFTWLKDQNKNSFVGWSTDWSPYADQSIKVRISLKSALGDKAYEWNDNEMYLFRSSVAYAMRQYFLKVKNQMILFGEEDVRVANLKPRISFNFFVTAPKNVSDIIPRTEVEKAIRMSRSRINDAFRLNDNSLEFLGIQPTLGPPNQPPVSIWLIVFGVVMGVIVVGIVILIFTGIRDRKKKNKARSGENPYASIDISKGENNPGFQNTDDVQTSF

SMILES: CC(C)C[C@H](N[C@@H](Cc1cncn1Cc1cc(Cl)cc(Cl)c1)C(=O)O)C(=O)O [MLN-4760]
- IC50: 0.19 nM
